Assay results: PubChem BioAssay (NCI)
Several values for one entry are separate records, joined by “and”; a condition that tells them apart may be missing. Equal values may be shown once.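 Tested at 5 concentrations; 48 h exposure; 96-well plates; endpoints linearly interpolated, else capped at highest concentration. GI50 is the concentration that inhibits growth by half. TGI is the concentration that stops growth completely.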

Legend:
Assay in all cases: NCI-60 cell line screen, 48 h
[1] = test system: SK-MEL-5 melanoma
[2] = test system: IGROV1 ovarian
[3] = test system: MOLT-4 leukemia
[4] = test system: SK-MEL-28 melanoma
[5] = test system: RPMI-8226 leukemia
[6] = test system: OVCAR-4 ovarian
[7] = test system: HT29 colon
[8] = test system: UACC-257 melanoma
[9] = test system: SNB-19 CNS
[10] = test system: NCI-H460 lung

| SMILES | GI50 [1] | TGI [1] | GI50 [2] | TGI [2] | GI50 [3] | TGI [3] | GI50 [4] | TGI [4] | GI50 [5] | TGI [5] | GI50 [6] | TGI [6] | GI50 [7] | TGI [7] | GI50 [8] | TGI [8] | GI50 [9] | TGI [9] | GI50 [10] | TGI [10] |
| --- | --- | --- | --- | --- | --- | --- | --- | --- | --- | --- | --- | --- | --- | --- | --- | --- | --- | --- | --- | --- |
| C[C@@H](Oc1ccc2[nH]nc(/C=C/c3cnn(CCO)c3)c2c1)c1c(Cl)cncc1Cl | 0.963 µM | 3.6 µM | 0.135 µM | 5.04 µM | 0.488 µM | 3.34 µM | 1.72 µM | 4.85 µM | 1.54 µM | 4.41 µM | 1.89 µM | 8.78 µM | 0.171 µM | 0.681 µM | 1.43 µM | 6.29 µM | 0.364 µM | 3.52 µM | 0.0866 µM | 1.62 µM |
| COc1ccc(Cl)cc1NC(=O)c1cccc([N+](=O)[O-])c1O |  | 14.7 µM |  | > 92.5 µM |  | > 100 µM |  | > 91.4 µM |  | > 69.5 µM |  | > 88.3 µM |  | > 95.6 µM |  | > 67.9 µM |  | > 100 µM |  | > 81.2 µM |
| CC1CCP(=O)(c2ccccc2)CC1 (stereo not drawn) |  | > 100 µM |  | > 100 µM |  | > 100 µM |  | > 100 µM |  | > 100 µM |  | > 100 µM |  | > 100 µM |  | > 100 µM |  | > 100 µM |  | > 100 µM |
| NC(Cc1ccnnc1)C(=O)O (stereo not drawn) |  | > 100 µM |  | > 100 µM |  | > 100 µM |  | > 100 µM |  | > 100 µM |  | > 100 µM |  | > 100 µM |  | > 100 µM |  | > 100 µM |  | > 100 µM |
| C=CCC(N[C@H](CO)c1ccccc1)c1cn(S(=O)(=O)c2ccc(C)cc2)c2ccccc12 (stereo partly drawn) | 26.1 µM | 43.8 µM | 14.6 µM | 47.3 µM | 15.2 µM | 41.4 µM | 41.6 µM | > 100 µM | 6.85 µM | 46.2 µM | 73.7 µM | > 100 µM | 31.2 µM | > 100 µM | 10.7 µM | 26.7 µM | 60.8 µM | > 100 µM | > 100 µM | > 100 µM |
| C#Cc1cccc(Oc2ccc(NC(=O)CCl)cc2)c1 | 33.6 µM | > 82.5 µM | 5.85 µM | 42.4 µM | 10.8 µM | 77.1 µM | > 82.5 µM | > 82.5 µM | > 82.5 µM | > 82.5 µM | 33.3 µM | > 82.5 µM | > 82.5 µM | > 82.5 µM | > 82.5 µM | > 82.5 µM | > 82.5 µM | > 82.5 µM | 25.3 µM | > 82.5 µM |
| CCCCCCCCCCCCCC(=O)C(C)N (stereo not drawn) | 17.9 µM | 32.2 µM | 3.68 µM | 14 µM | 7.06 µM | 23.5 µM | 16.8 µM | 32.5 µM | 6.26 µM | 23.7 µM | 3.9 µM | 16.1 µM | 3.89 µM | 13.7 µM | 18.6 µM | 34.1 µM | 13.5 µM | 30.7 µM | 4.16 µM | 15.3 µM |
| O=C1C(=O)c2ccccc2C(O)=C1CC=C(Cl)Cl | 3.54 µM | 22.6 µM and 43 µM and 21.6 µM | 4.93 µM and 8.27 µM | 119 µM and > 100 µM | 0.828 µM and 4.68 µM | 27.1 µM and 103 µM and > 100 µM | 9.5 µM and 16.4 µM | 60.4 µM and 161 µM and > 100 µM | 6.53 µM | 37.4 µM and 65.2 µM and 45.9 µM | 18.9 µM and 26.9 µM | 96.9 µM and 135 µM and > 100 µM | 6.4 µM | 141 µM and > 100 µM |  | 58.2 µM and 65.8 µM and 65.3 µM | 7.46 µM and 9.74 µM | > 90.5 µM and 204 µM and > 100 µM | 1.66 µM | 49.8 µM and 79.1 µM and 25.5 µM |
| O=S(=O)(NCCNc1cc(-c2cn(-c3ccccc3)nc2-c2cccc(O)c2)ccn1)c1ccc(Cl)cc1 | 2.02 µM | 4 µM | 3.82 µM | 24.2 µM | 2.51 µM | 7.37 µM | 2.2 µM | 5.42 µM | 2.59 µM | 7.75 µM | 4.37 µM | > 100 µM | 2.24 µM | 5.21 µM | 3.39 µM | 10.3 µM | 4.26 µM | 63.7 µM | 3.34 µM | 11.9 µM |
| CS(=O)(=O)CCn1c(=O)c(Oc2ccc(F)cc2F)cc2cnc(NC3CCOCC3)nc21 | > 25 µM | > 25 µM | > 25 µM | > 25 µM | > 25 µM | > 25 µM | > 25 µM | > 25 µM | > 25 µM | > 25 µM | > 25 µM | > 25 µM | > 25 µM | > 25 µM | > 25 µM | > 25 µM | > 25 µM | > 25 µM | > 25 µM | > 25 µM |
| Nc1ccc2ccc(NS(=O)(=O)N3CCCCC3)cc2c1 | 0.285 µM | 4.52 µM | 0.765 µM | > 100 µM | 0.524 µM | > 100 µM | 0.664 µM | > 100 µM | 0.507 µM | > 49.6 µM | 1.82 µM | > 100 µM | 0.4 µM | > 100 µM | 12.9 µM | > 100 µM | 0.797 µM | > 100 µM | 0.409 µM |  |
| N#C/C(N)=C(\C#N)N=Cc1csc2ccccc12 | 22.9 µM | > 100 µM | 15.8 µM | 67.2 µM | 4.08 µM | > 100 µM | 37.5 µM | > 100 µM | > 100 µM | > 100 µM | 43.5 µM | > 100 µM | 22.2 µM | > 100 µM | > 100 µM | > 100 µM | 27.7 µM | 71.9 µM | > 100 µM | > 100 µM |
| c1cc[c]([Sn]([S]c2cccc3cccnc23)([S]c2cccc3cccnc23)[c]2ccccc2)cc1 | 0.204 µM | 0.483 µM | 0.267 µM | 0.789 µM | 0.101 µM | 0.542 µM | 0.196 µM | 0.532 µM | 0.158 µM | 0.465 µM | 0.163 µM | 0.336 µM | 0.222 µM | 0.565 µM | 0.205 µM | 0.559 µM | 0.438 µM | 1.66 µM | 0.228 µM | 0.643 µM |
